Measured values from US10597388B2, “Pyridazinone herbicides” (FMC CORPORATION, priority 2014, dated 2020).

Tests used:
Experiment in all cases: Test C greenhouse herbicide test, pre- and postemergence
Assay type in all cases: in vivo
[1] = test system: ryegrass, Italian (Italian ryegrass, Lolium multiflorum)
From the text: (§1) Seeds of plant species selected from blackgrass (Alopecurus myosuroides), ryegrass, Italian (Italian ryegrass, Lolium multiflorum), wheat (winter wheat, Triticum aestivum), galium (catchweed bedstraw, Galium aparine), corn (Zea mays), large crabgrass, large (large crabgrass, Digitaria sanguinalis), foxtail, giant (giant foxtail, Setaria faberii), johnsongrass (Sorghum halepense), lambsquarters (Chenopodium album), morningglory (Ipomoea coccinea), nutsedge, yellow (yellow nutsedge, Cyperus esculentus), pigweed (Amaranthus retroflexus), ragweed (common ragweed, Ambrosia elatior), soybean (Glycine max), barnyardgrass (Echinochloa crus-galli), oilseed rape (Brassica napus), waterhemp (common waterhemp, Amaranthus rudis), and velvetleaf (Abutilon theophrasti) were planted into a blend of loam soil and sand and treated preemergence with test chemicals formulated in a non-phytotoxic solvent mixture which included a surfactant.
(§2) At the same time, plants selected from these crop and weed species and also chickweed (common chickweed, Stellaria media), kochia (Kochia scoparia), and oat, wild (wild oat, Avena fatua), were planted in pots containing Redi-Earth® planting medium (Scotts Company, 14111 Scottslawn Road, Marysville, Ohio 43041) comprising spaghnum peat moss, vermiculite, wetting agent and starter nutrients and treated with postemergence applications of test chemicals formulated in the same manner. Plants ranged in height from 2 to 18 cm (1- to 4-leaf stage) for postemergence treatments. Treated plants and controls were maintained in a greenhouse for 13 to 15 d, after which time all species were compared to controls and visually evaluated. Plant response ratings, summarized in Table C, are based on a scale of 0 to 100 where 0 is no effect and 100 is complete control. A dash (-) response means no test result.

[2] = test system: crabgrass, large (large crabgrass, Digitaria sanguinalis)
From the text: as §1, §2

[3] = test system: barnyardgrass (Echinochloa crus-galli)
From the text: as §1, §2

[4] = test system: morningglory (Ipomoea coccinea)
From the text: as §1, §2

[5] = test system: oilseed rape (Brassica napus)
From the text: as §1, §2

[6] = test system: wheat (winter wheat, Triticum aestivum)
From the text: as §1, §2

[7] = test system: lambsquarters (Chenopodium album)
From the text: as §1, §2

[8] = test system: foxtail, giant (giant foxtail, Setaria faberii)
From the text: as §1, §2

[9] = test system: johnsongrass (Sorghum halepense)
From the text: as §1, §2

[10] = test system: galium (catchweed bedstraw, Galium aparine)
From the text: as §1, §2

[11] = test system: ragweed (common ragweed, Ambrosia elatior)
From the text: as §1, §2

[12] = Postemergence, 31 g ai/ha, 0 to 100 scale (0 no effect, 100 complete control)
[13] = Postemergence, 125 g ai/ha, scale 0 to 100, 0 is no effect, 100 is complete control
[14] = Postemergence, 250 g ai/ha, scale 0 to 100, 0 no effect, 100 complete control, 13 to 15 d
[15] = Preemergence, 31 g ai/ha, scale 0 to 100, 0 is no effect, 100 is complete control
[16] = Preemergence, 62 g ai/ha, scale 0 to 100, 0 is no effect, 100 is complete control
[17] = Preemergence, 125 g ai/ha, scale 0 to 100, 0 is no effect, 100 is complete control
[18] = Preemergence, 250 g ai/ha, scale 0 to 100, 0 no effect, 100 complete control
[19] = postemergence, 62 g ai/ha, scale 0 to 100, 0 no effect, 100 complete control

In the case of `Cc1nn(C)c(=O)c(-c2cccc3ccccc23)c1O` [Compound 11, 5-hydroxy-2,6-dimethyl-4-(1-naphthalenyl)-3(2H)-pyridazinone], the “Ryegrass, Italian plant response rating” value [1, 12] is reported as 70, the “Plant response rating, Ryegrass, Italian” value [1, 13] is reported as 90 and the “Plant response rating, Ryegrass, Italian” value [1, 14] is reported as 90. For the same compound, the “Plant response rating, Ryegrass, Italian” value [1, 15] was 90, the “Plant response rating, Ryegrass, Italian” value [1, 16] was 95 and the “Plant response rating, Ryegrass, Italian” value [1, 17] was 100. For the same compound, the “Ryegrass, Italian plant response rating” value [1, 18] was 100, the “Ryegrass, Italian plant response rating” value [1, 19] was 70 and the “Crabgrass, Large plant response rating” value [2, 12] was 0. For the same compound, the “Plant response rating, Crabgrass, Large” value [2, 13] was 0, the “Plant response rating, Crabgrass, Large” value [2, 14] was 10 and the “Plant response rating, Crabgrass, Large” value [2, 15] was 0. For the same compound, the “Plant response rating, Crabgrass, Large” value [2, 16] was 0, the “Plant response rating, Crabgrass, Large” value [2, 17] was 40 and the “Crabgrass, Large plant response rating” value [2, 18] was 40. The “Crabgrass, Large plant response rating” value [2, 19] was 0, the “Barnyardgrass plant response rating” value [3, 12] was 0 and the “Plant response rating, Barnyardgrass” value [3, 13] was 5. For the same compound, the “Plant response rating, Barnyardgrass” value [3, 14] was 15, the “Plant response rating, Barnyardgrass” value [3, 15] was 0 and the “Plant response rating, Barnyardgrass” value [3, 16] was 0. For the same compound, the “Plant response rating, Barnyardgrass” value [3, 17] was 10, the “Barnyardgrass plant response rating” value [3, 18] was 80 and the “Barnyardgrass plant response rating” value [3, 19] was 0. The “Morningglory plant response rating” value [4, 12] was 70, the “Plant response rating, Morningglory” value [4, 13] was 90 and the “Plant response rating, Morningglory” value [4, 14] was 98. For the same compound, the “Plant response rating, Morningglory” value [4, 15] was 100, the “Plant response rating, Morningglory” value [4, 16] was 100 and the “Plant response rating, Morningglory” value [4, 17] was 100. The “Morningglory plant response rating” value [4, 18] was 100, the “Morningglory plant response rating” value [4, 19] was 80 and the “Oilseed Rape plant response rating” value [5, 12] was 0. For the same compound, the “Plant response rating, Oilseed Rape” value [5, 13] was 0, the “Plant response rating, Oilseed Rape” value [5, 14] was 0 and the “Plant response rating, Oilseed Rape” value [5, 15] was 0. For the same compound, the “Plant response rating, Oilseed Rape” value [5, 16] was 0, the “Plant response rating, Oilseed Rape” value [5, 17] was 0 and the “Oilseed Rape plant response rating” value [5, 18] was 0. The “Oilseed Rape plant response rating” value [5, 19] was 0, the “Wheat plant response rating” value [6, 12] was 0 and the “Plant response rating, Wheat” value [6, 13] was 5. The “Plant response rating, Wheat” value [6, 14] was 5, the “Plant response rating, Wheat” value [6, 16] was 0 and the “Plant response rating, Wheat” value [6, 17] was 0. For the same compound, the “Wheat plant response rating” value [6, 18] was 10, the “Wheat plant response rating” value [6, 19] was 0 and the “Lambsquarters plant response rating” value [7, 12] was 80. The “Plant response rating, Lambsquarters” value [7, 13] was 90, the “Plant response rating, Lambsquarters” value [7, 14] was 90 and the “Plant response rating, Lambsquarters” value [7, 15] was 70. For the same compound, the “Plant response rating, Lambsquarters” value [7, 16] was 100, the “Plant response rating, Lambsquarters” value [7, 17] was 100 and the “Lambsquarters plant response rating” value [7, 18] was 100. The “Lambsquarters plant response rating” value [7, 19] was 90, the “Foxtail, Giant plant response rating” value [8, 12] was 5 and the “Plant response rating, Foxtail, Giant” value [8, 13] was 10. The “Plant response rating, Foxtail, Giant” value [8, 14] was 30, the “Plant response rating, Foxtail, Giant” value [8, 15] was 0 and the “Plant response rating, Foxtail, Giant” value [8, 16] was 35. For the same compound, the “Plant response rating, Foxtail, Giant” value [8, 17] was 50, the “Foxtail, Giant plant response rating” value [8, 18] was 90 and the “Foxtail, Giant plant response rating” value [8, 19] was 5. For the same compound, the “Johnsongrass plant response rating” value [9, 12] was 0, the “Plant response rating, Johnsongrass” value [9, 13] was 5 and the “Plant response rating, Johnsongrass” value [9, 14] was 5. For the same compound, the “Plant response rating, Johnsongrass” value [9, 15] was 0, the “Plant response rating, Johnsongrass” value [9, 16] was 0 and the “Plant response rating, Johnsongrass” value [9, 17] was 0. For the same compound, the “Johnsongrass plant response rating” value [9, 18] was 0, the “Johnsongrass plant response rating” value [9, 19] was 0 and the “Galium plant response rating” value [10, 12] was 75. For the same compound, the “Plant response rating, Galium” value [10, 13] was 90, the “Plant response rating, Galium” value [10, 14] was 90 and the “Plant response rating, Galium” value [10, 15] was 85. The “Plant response rating, Galium” value [10, 16] was 90, the “Plant response rating, Galium” value [10, 17] was 90 and the “Galium plant response rating” value [10, 18] was 95. The “Galium plant response rating” value [10, 19] was 90, the “Ragweed plant response rating” value [11, 12] was 0 and the “Plant response rating, Ragweed” value [11, 13] was 95. The “Plant response rating, Ragweed” value [11, 14] was 95, the “Plant response rating, Ragweed” value [11, 15] was 15 and the “Plant response rating, Ragweed” value [11, 16] was 50. For the same compound, the “Plant response rating, Ragweed” value [11, 17] was 80, the “Ragweed plant response rating” value [11, 18] was 90 and the “Ragweed plant response rating” value [11, 19] was 40.
